{"source": "patent US7015249B1", "about": "“Methods and compositions for treating diabetes” (Purdue Research Foundation, priority 1997, dated 2006)", "format_in_all_cases": "cell-based", "key": {"[1]": {"target": "T1, ligand binding domain of mouse PPARβ (Mus musculus, UniProt P35396)", "T1 construct": "expressed in transfected cells; host or cells: COS-1", "T1 sequence (P35396 210-438 limits assumed)": "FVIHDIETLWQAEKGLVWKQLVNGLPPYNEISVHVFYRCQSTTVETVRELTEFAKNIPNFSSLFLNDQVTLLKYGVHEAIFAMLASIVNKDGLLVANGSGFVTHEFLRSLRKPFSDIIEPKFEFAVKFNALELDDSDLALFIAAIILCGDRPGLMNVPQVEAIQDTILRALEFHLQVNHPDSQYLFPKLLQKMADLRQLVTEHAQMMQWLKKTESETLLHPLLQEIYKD", "assay": "GAL4-PPARβ chimera / (UAS)5-tk-CAT reporter transfection assay in COS-1 cells", "details": "100 μM in DMSO", "experimental": "(§1) COS-1 cells (American Type Culture Collection) were maintained in α-minimal essential media (Sigma) supplemented with 8% fetal calf serum (Gibco BRL), 0.2 mg/ml streptomycin and 200 U/ml penicillin. The pSG5-GAL4-PPAR chimera expression constructs, containing the ligand binding domain of mouse PPARα, β or γ, as well as the (UAS)5-tk-CAT reporter construct were kindly provided by Steven A. Kliewer (Glaxo Research Institute). At 75–90% confluence, COS-1 cells were co-transfected with GAL4-PPAR, (UAS)5-tk-CAT, and pSV-βGal (Promega) as described in Lehmann, J. M. et al., J. Biol. Chem. 270, 12953–12956 (1995). Twenty-four hours after transfection, the cells were treated with the indicated amounts of CLA, or a single 100 μM dose of 4-chloro-6-(2,3-xylindino)-2-pyrimidinylthio)-acetic acid (Wy 14,643; a hypolipidemic drug known as a peroxisome proliferator). After 6 hours of treatment, the cells were harvested and chloramphenicol acetyltransferase levels were assessed by ELISA (Gibco BRL) according to the manufacturer's instructions. Data is expressed relative to β-galactosidase activity. CLA used in this experiment was obtained from a commercially available mixture from NuChek Prep, Elysian Minn. The mixture contained about 41.2% by weight of a composition including cis,trans-9,11-octadecadienoic acid and trans,cis-9,11-octadecadienoic acid, about 44% by weight trans,cis-10,12-octadecadienoic acid, about 9.4% by weight cis,cis-10,12-octadecadienoic acid, about 1.3% by weight of a composition including trans,trans-9,11-octadecadienoic acid and trans,trans-10,12-octadecadienoic acid, about 1.1% by weight cis,cis-9,11-octadecadienoic acid, about 0.7% by weight linoleic acid and about 2.2% of other lipids as mentioned above.\nIn this example, certain PPAR subtypes are shown to be activated by CLA isomers. However, a 100 μM concentration of selected isomers of CLA were also utilized in the transfection assay to determine whether specific isomers of CLA could activate any of the PPAR subtypes."}, "[2]": {"target": "T2, ligand binding domain of mouse PPARα (Mus musculus, UniProt P23204)", "T2 construct": "expressed in transfected cells; host or cells: COS-1", "T2 sequence (P23204 239-466 limits assumed)": "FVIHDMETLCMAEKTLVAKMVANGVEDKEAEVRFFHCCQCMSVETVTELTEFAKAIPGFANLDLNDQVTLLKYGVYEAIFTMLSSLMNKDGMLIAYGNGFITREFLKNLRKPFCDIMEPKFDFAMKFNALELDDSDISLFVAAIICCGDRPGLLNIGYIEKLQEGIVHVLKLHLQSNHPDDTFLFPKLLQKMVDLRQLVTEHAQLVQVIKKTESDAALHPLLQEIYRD", "assay": "GAL4-PPARα chimera / (UAS)5-tk-CAT reporter transfection assay in COS-1 cells", "details": "100 μM in DMSO", "experimental": "as §1, with “The mixture contained about 41.2% by weight of a composition including cis,trans-9,11-octadecadienoic acid and trans,cis-9,11-octadecadienoic acid, about 44% by weight trans,cis-10,12-octadecadienoic acid, about 9.4% by weight cis,cis-10,12-octadecadienoic acid, about 1.3% by weight of a composition including trans,trans-9,11-octadecadienoic acid and trans,trans-10,12-octadecadienoic acid, about 1.1% by weight cis,cis-9,11-octadecadienoic acid, about 0.7% by weight linoleic acid and about 2.2% of other lipids as mentioned above.” left out"}, "full length mouse PPARα": {"target": "T3, full length mouse PPARα (Mus musculus, UniProt P23204)", "T3 construct": "constructs including full length mouse PPARα, PPARβ or PPARγ and a luciferase reporter gene; expressed in transfected cells; host or cells: CV-1 (African green monkey kidney cells)", "T3 sequence (P23204 1-468)": "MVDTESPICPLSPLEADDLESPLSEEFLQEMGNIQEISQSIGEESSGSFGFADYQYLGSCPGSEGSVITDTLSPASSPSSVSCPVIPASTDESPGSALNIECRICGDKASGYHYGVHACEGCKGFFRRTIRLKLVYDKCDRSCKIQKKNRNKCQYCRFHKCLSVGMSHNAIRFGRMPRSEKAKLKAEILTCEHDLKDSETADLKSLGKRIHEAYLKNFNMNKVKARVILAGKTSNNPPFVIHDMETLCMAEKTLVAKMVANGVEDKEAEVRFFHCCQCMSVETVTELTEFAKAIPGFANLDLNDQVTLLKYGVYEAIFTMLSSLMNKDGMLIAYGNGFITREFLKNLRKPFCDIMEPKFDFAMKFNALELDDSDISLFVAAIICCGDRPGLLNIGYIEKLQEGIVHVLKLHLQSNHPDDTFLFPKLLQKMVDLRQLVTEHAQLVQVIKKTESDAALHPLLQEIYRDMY", "assay": "Full length PPARα PPRE-luciferase reporter assay in CV-1 cells", "details": "100 μM, six hours", "experimental": "(§2) The data in FIGS. 5–7 was generated utilizing constructs including full length mouse PPARα, PPARβ or PPARγ and a luciferase reporter gene. The CV-1 cell line (African green monkey kidney cells) used was obtained from American Type Culture Collection (#CCL-70). The cells were grown in Eagle minimal essential medium containing 10% fetal bovine serum (GIBCO). For each transfection involving PPARα, 625 ng pcDNA3-PPARα expression vector was used along with 250 ng of psV-GL-2-PPRE-luciferase reporter plasmid and 250 ng of pSV-β-galactosidase internal control plasmid. For each transfection involving PPARβ or PPARγ, either 625 ng pSG5-mouse-PPARβ or 625 ng pSG5-mouse-PPARγ was used along with 250 ng of the psV-GL2-PPRE-luciferase reporter plasmid and 250 ng of pSV-β-galactosidase internal control plasmid. Cells were transfected using Lipofect AMINE™ reagent (GIBCO) and phenol red-free, serum free medium (OptiMEM®I, GIBCO Life Technologies, Grand Island, N.Y.). Seven hours post-transfection, charcoal stripped serum (Cocalico Biologicals, Inc. Reamstown, Pa.) was added to the media (10% final concentration) for an overnight incubation (16 hours). […] The data were quantified relative to luciferase/β-galactosidase activity expressed as a ratio to vehicle-treated cells (0.1% DMSO)."}, "full length mouse PPARγ": {"target": "T4, full length mouse PPARγ (Mus musculus, UniProt P37238)", "T4 construct": "constructs including full length mouse PPARα, PPARβ or PPARγ and a luciferase reporter gene; expressed in transfected cells; host or cells: CV-1 (African green monkey kidney cells)", "T4 sequence (P37238 1-505)": "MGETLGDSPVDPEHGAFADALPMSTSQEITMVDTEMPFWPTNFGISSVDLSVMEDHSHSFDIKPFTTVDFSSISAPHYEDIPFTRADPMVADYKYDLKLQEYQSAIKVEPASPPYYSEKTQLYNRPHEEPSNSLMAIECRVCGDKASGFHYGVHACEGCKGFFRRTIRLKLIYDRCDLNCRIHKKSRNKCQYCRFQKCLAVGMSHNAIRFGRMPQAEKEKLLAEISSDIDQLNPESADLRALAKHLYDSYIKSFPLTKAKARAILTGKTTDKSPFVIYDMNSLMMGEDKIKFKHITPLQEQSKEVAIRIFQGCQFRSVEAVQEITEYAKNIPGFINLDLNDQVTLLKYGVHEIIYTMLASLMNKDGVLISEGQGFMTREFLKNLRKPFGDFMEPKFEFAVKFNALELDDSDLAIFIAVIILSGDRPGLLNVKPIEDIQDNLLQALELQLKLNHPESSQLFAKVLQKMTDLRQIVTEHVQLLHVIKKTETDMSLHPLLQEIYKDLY", "assay": "Full length PPARγ PPRE-luciferase reporter assay in CV-1 cells", "details": "100 μM, six hours", "experimental": "as §2"}, "full length mouse PPARβ": {"target": "T5, full length mouse PPARβ (Mus musculus, UniProt P35396)", "T5 construct": "constructs including full length mouse PPARα, PPARβ or PPARγ and a luciferase reporter gene; expressed in transfected cells; host or cells: CV-1 (African green monkey kidney cells)", "T5 sequence (P35396 1-440)": "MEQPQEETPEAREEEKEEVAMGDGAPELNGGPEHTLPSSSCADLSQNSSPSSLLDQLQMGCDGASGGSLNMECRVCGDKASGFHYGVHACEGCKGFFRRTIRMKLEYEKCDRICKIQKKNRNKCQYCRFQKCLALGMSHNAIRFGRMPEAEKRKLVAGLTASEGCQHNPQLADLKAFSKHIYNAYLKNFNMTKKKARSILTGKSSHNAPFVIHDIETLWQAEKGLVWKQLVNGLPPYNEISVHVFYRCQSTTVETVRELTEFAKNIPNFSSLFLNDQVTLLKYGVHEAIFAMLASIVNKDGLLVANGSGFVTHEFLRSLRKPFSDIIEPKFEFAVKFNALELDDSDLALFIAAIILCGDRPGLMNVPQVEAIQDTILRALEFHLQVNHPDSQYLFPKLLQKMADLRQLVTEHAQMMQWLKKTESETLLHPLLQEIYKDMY", "assay": "Full length PPARβ PPRE-luciferase reporter assay in CV-1 cells", "details": "100 μM", "experimental": "as §2"}, "[3]": {"details": "listed as trans,cis-10,12-octadecadienoic acid"}}, "data": [{"compound": "CCCCCC/C=C/C=C/CCCCCCCC(=O)O", "note": "[9E11E, trans,trans-9,11-octadecadienoic acid]", "values": [{"measurement": "activation of PPARβ, compared with CLA mixture (FIG. 4)", "setting": "[1]", "result": "more than CLA mixture alone"}]}, {"compound": "CCCCCC/C=C\\C=C/CCCCCCCC(=O)O", "note": "[9Z11Z, cis,cis-9,11-octadecadienoic acid]", "values": [{"measurement": "activation of PPARα, compared with CLA mixture (FIG. 4)", "setting": "[2]", "result": "more than the CLA mixture"}, {"measurement": "activation of PPARβ, compared with CLA mixture (FIG. 4)", "setting": "[1]", "result": "more than the CLA mixture"}]}, {"compound": "CCCCCC/C=C/C=C\\CCCCCCCC(=O)O", "note": "[9Z11E, cis,trans-9,11-octadecadienoic acid]", "values": [{"measurement": "activation of PPARα, compared with CLA mixture (FIG. 4)", "setting": "[2]", "result": "more than the CLA mixture"}, {"measurement": "activation of PPARβ, compared with CLA mixture (FIG. 4)", "setting": "[1]", "result": "more than the CLA mixture"}]}, {"compound": "CCCCC/C=C\\C=C\\CCCCCCCCC(=O)O", "note": "[trans,cis-10,12 CLA isomer, trans,cis-10,12-octadecadienoic acid]", "values": [{"measurement": "activation of full length PPARα vs DMSO control / CLA mixture (FIG. 5)", "setting": "full length mouse PPARα", "result": "significantly more than the CLA mixture alone"}, {"measurement": "activation of full length PPARα vs DMSO control / CLA mixture (FIG. 5)", "setting": "full length mouse PPARα; [3]", "result": "activate"}, {"measurement": "activation of full length PPARγ vs DMSO control (FIG. 7)", "setting": "full length mouse PPARγ", "result": "activate"}, {"measurement": "activation of full length PPARβ vs DMSO control / CLA mixture (FIG. 6)", "setting": "full length mouse PPARβ", "result": "significantly more than the CLA mixture alone"}, {"measurement": "activation of full length PPARβ vs DMSO control / CLA mixture (FIG. 6)", "setting": "full length mouse PPARβ; [3]", "result": "activate"}]}]}
